Results reported in publication PMC10180197, “Novel Pyrimidine Derivatives as Antioxidant and Anticancer Agents: Design, Synthesis and Molecular Modeling Studies” (Molecules, 2023).
Read-outs that look alike come from different tables or passages of the source.

Assays:
[1] = Inhibition of AAPH induced linoleic acid peroxidation
Protocol: For the lipid peroxidation study, 2,2′-Azobis(2-methylpropionamidine) dihydrochloride (AAPH) was used as the generator of peroxy radicals and sodium linoleate as the substrate that undergoes peroxidation. The conversion of linoleic acid to 13-hydroperoxy-linoleic acid was recorded at 234 nm. The change of absorbance reflects the possible antioxidant activity of the tested compounds, in comparison with the reference compound, Trolox.
In vitro study was performed as reported previously by our group. AAPH was used as a free radical generator of alkyl peroxyl radicals. For this experimental procedure, 10 μL of the tested compound (from the stock solution), 10 μL sodium linoleate (16 mM), 50 μL AAPH (40 mM) and 930 μL phosphate-buffered solution (pH 7.4) were added in a UV cuvette (1 mL), pre thermostated at 37 °C. The ability of the compounds to prevent the oxidation of linoleic acid from alkyl peroxyl radicals was evaluated by recording the change of absorbance at 234 nm, due to the conversion of linoleic acid to 13-hydroperoxy-linoleic acid. Trolox was used as the reference.

A549 cell line = assay: MTT cytotoxicity assay, A549; type: cell-based, human; conditions: 24 h; for cytotoxicity at 10 µM / cytotoxicity at 50 µM / cytotoxicity at 100 µM: Homo sapiens; for cytotoxicity at 10 µM: read-out: % Cell Toxicity 10 μΜ; for cytotoxicity at 50 µM: read-out: % Cell Toxicity 50 μΜ; for cytotoxicity at 100 µM: A549, 100 μΜ, read-out: % Cell Toxicity 100 μΜ
Protocol: The compounds of this study were also tested for their cytotoxic effects against the adenocarcinomic human alveolar basal epithelial cell line (A549) at different concentrations (100 μM, 75 μΜ, 50 μM and 10 μM).
(§1) Τhe MTT assay was used to evaluate cell viability or cell toxicity, depending on the cell line being tested. The experimental procedure was performed in a 96-well plate, where the cells were seeded and incubated (37 °C, 5% CO2) for 24 h to grow and cover the surface of the wells. Τhe seeding concentrations for the HaCaT and A549 cells were 30 × 10^4 cells/mL and 20 × 10^4 cells/mL, respectively. After the first incubation, the solutions of the compounds (with different concentrations) were added to the adherent cells and incubated for another 24 h. The compounds were tested in triplicate against the control (only cells in medium), the blank (only medium) and the positive/negative control (cells in 100 μM silibinin solution) triplicates. Silibinin, a flavonoid with known anticancer activities, was used as a negative control for the cell viability assay and as positive control for the cytotoxicity testing assay. The light-sensitive MTT-standard solution was prepared by dissolving 1 mg/mL MTT in PBS and then filtrated (in a […] filter (Millipore, Carrigtwohill, Ireland)). On the third day, an appropriate amount of ΜΤΤ solution was added to each well and the plate was incubated for 4 h. During the incubation time, the formazan crystals were formed, which were then dissolved with 100 μL DMSO per well. Finally, the plate was stirred for 30 min, and the optical density (OD) was measured in a plate reader spectrophotometer at 450 nm.

[2] = Experimental determination of lipophilicity as RM values (RP-TLC); type: physicochemical; conditions: methanol/water 70/30 v/v, 24 °C, SD < 10%
Description: Lipophilicity is an important physicochemical parameter of a drug candidate, linking solubility and membrane permeability with the ADMET (absorption, distribution, metabolism, elimination and toxicity) properties and the overall suitability of a molecule. Reversed-phase thin-layer chromatography was the method used to experimentally determine the lipophilic character of the synthesized compounds as RM values (Table 2). Lipophilicity was also theoretically calculated as clog P values using the Bio-Loom program of BioByte Corp (http://www.biobyte.com/, (accessed on 1 March 2023)). An attempt was made to correlate the experimental RM values with the theoretically calculated clog P values (Table 2). […] This disagreement could be attributed to several factors, e.g., different solvation, silanophilic interactions and hydrogen bonding.
Lipophilicity as RM values was determined through reversed-phase TLC (RP-TLC) on silica gel plates impregnated with 5% v/v liquid paraffin in light petroleum ether. Methanol/water mixture (70/30, v/v) was used as mobile phase. Closed chromatography tanks saturated with the mobile phase at 24 °C were used for the development of the plates while the spots were detected under UV light. For the determination of RM values, five individual measurements of Rf values were recorded, and the RM values were derived from the following Equation (1). (1) RM=log1/Rf−1

[3] = MTT cell viability assay, HaCaT; type: cell-based, human; conditions: human, HaCaT cells (epidermal keratinocyte cell line); for viability at 24 h, 10 μM: 10 μΜ; for viability at 24 h, 50 μM: 50 μΜ
Protocol: (§2) The MTT (3-(4,5-dimethylthiazol-2-yl)-2,5-diphenyltetrazolium bromide) assay is a colorimetric method that is used for the evaluation of cell viability. MTT is converted into colored formazan crystals, indicating the activity of mitochondria and therefore the viability of the cells. Unlike dead cells, the metabolic processes of living cells are functional, meaning that the dehydrogenase enzymes are able to reduce the yellow MTT salt solution to purple crystals, at 37 °C. The intensity of the sample’s color, due to the amount of formazan crystals, is proportional to the number of the living cells in it. Additionally, the colored product is dissolved in various solubilizing agents, such as dimethyl sulfoxide (DMSO). The colored products can be quantitatively measured at 450 nm with a plate reader spectrophotometer. In this study, the human epidermal keratinocyte cell line (HaCaT) was treated with different concentrations (100 μM, 50 μM, 10 μM and 1 μM) of the tested compounds and then the viability rates at each effect were calculated.
as §1

HaCaT cell line = assay: MTT cell viability assay, HaCaT; type: cell-based, human; conditions: 24 h
Protocol: as §2, §1

SMILES | AAPH % Inhibition 100 μM [1] | cytotoxicity at 10 µM (A549 cell line; A549, 10 μΜ) | cytotoxicity at 50 µM (A549 cell line; A549, 50 μΜ) | cytotoxicity at 100 µM (A549 cell line) | RM [2] | viability at 24 h, 10 μM [3] | viability at 24 h, 50 μM [3] | % Cell Viability 100 μΜ (HaCaT cell line) | AAPH % Inhibition 100 μM ([1]; 100 µM) | viability at 24 h, 1 μM ([3]; 1 μΜ) | % Cell Viability 10 μΜ (HaCaT cell line; 10 μΜ) | % Cell Toxicity 10 μΜ (A549 cell line; A549, 10 μΜ) | % Cell Toxicity 50 μΜ (A549 cell line; A549, 50 μΜ) | viability at 24 h, 100 μM ([3]; 100 μΜ)
O=C(/C=C/c1ccc(Cl)cc1)c1ccc(Cl)cc1 [Compound 1f, (E)-1,3-bis(4-chlorophenyl)prop-2-en-1-one] | 51% | 48.9% | 67.6% | 100% | −0.24 | 100% | 57% | no |  |  |  |  |  | 
O=c1[nH]c(=S)[nH]c2nc(-c3ccccc3)cc(-c3ccc(Cl)cc3Cl)c12 [Compound 2g, 5-(2,4-dichlorophenyl)-7-phenyl-2-thioxo-2,3-dihydropyrido [2,3-d]pyrimidin-4(1H)-one] | 95% |  | 79.1% | 79.4% | −0.60 | 56.7% |  | no |  |  |  |  |  | 
O=C(/C=C/c1cccs1)c1ccc(Cl)cc1 [Compound 1d, (E)-1-(4-chlorophenyl)-3-(thiophen-2-yl)prop-2-en-1-one] | 8% | 47.4% | 83.2% | 100% | −0.46 | 72.8% | 53% | no |  |  |  |  |  | 
O=C(/C=C/c1ccccc1)c1ccc(Cl)cc1 [Compound 1b, (E)-1-(4-chlorophenyl)-3-phenylprop-2-en-1-one] | 51% | 49.2% | 88.1% | 100% | −0.50 | 28.1% |  | no |  |  |  |  |  | 
O=c1[nH]c(=S)[nH]c2nc(-c3ccccc3)cc(-c3ccccc3)c12 [Compound 2a, 5,7-diphenyl-2-thioxo-2,3-dihydropyrido [2,3-d]pyrimidin-4(1H)-one] | 52% | 56.4% | 75% | 80.9% | −0.95 | 100% | 85.6% | no |  |  |  |  |  | 
O=C(/C=C/c1ccccc1)c1ccccc1 [Compound 1a, (E)-1,3-diphenylprop-2-en-1-one] | 6% | 41.8% | 81.6% | 100% | −0.57 | 55.1% |  | no |  |  |  |  |  | 
O=C(/C=C/c1ccc(Cl)cc1)c1ccccc1 [Compound 1e, (E)-3-(4-chlorophenyl)-1-phenylprop-2-en-1-one] | 4% |  | 6.8% | 36.8% | −0.50 | 100% | 89.9% | no |  |  |  |  |  | 
O=c1[nH]c(=S)[nH]c2nc(-c3ccc(Cl)cc3)cc(-c3ccc(Cl)cc3)c12 [Compound 2f, 5,7-bis(4-chlorophenyl)-2-thioxo-2,3-dihydropyrido [2,3-d]pyrimidin-4(1H)-one] | no activity | 48.6% | 88.1% | 100% | −0.91 |  |  | no | no | 73.4% | no |  |  | 
O=c1[nH]c(=S)[nH]c2nc(-c3ccccc3)cc(-c3cccs3)c12 [Compound 2c, 7-phenyl-5-(thiophen-2-yl)-2-thioxo-2,3-dihydropyrido [2,3-d]pyrimidin-4(1H)-one] | 52% | 49.4% | 63.6% | 100% | −0.83 | 16.1% |  | no |  |  |  |  |  | 
O=c1[nH]c(=S)[nH]c2nc(-c3ccc(Cl)cc3)cc(-c3cccs3)c12 [Compound 2d, 7-(4-chlorophenyl)-5-(thiophen-2-yl)-2-thioxo-2,3-dihydropyrido [2,3-d]pyrimidin-4(1H)-one] | 62% | 48.6% | 100% | 100% | −0.80 | 50% |  | no |  |  |  |  |  | 
O=c1[nH]c(=S)[nH]c2nc(-c3ccc(Cl)cc3)cc(-c3ccccc3)c12 [Compound 2b, 7-(4-chlorophenyl)-5-phenyl-2-thioxo-2,3-dihydropyrido [2,3-d]pyrimidin-4(1H)-one] | 62% | 47.9% | 83.5% | 100% | −0.87 | 75.1% | 26% | no |  |  |  |  |  | 
O=C(/C=C/c1ccc(Cl)cc1Cl)c1ccccc1 [Compound 1g, (E)-3-(2,4-dichlorophenyl)-1-phenylprop-2-en-1-one] | 39% |  |  | 10.8% | −0.21 | 100% | 32.7% |  |  |  |  | no | no | 2.1%
